Measurements taken from patent EP1510211A1, “Pharmaceutical composition comprising N-retinyl-N-retinylidene Ethanolamine (A2E), isoforms of A2E or derivatives thereof” (Lynkeus Biotech GmbH, priority 2003, dated 2005).

Legend:
[1] = system: porcine primary retinal pigment epithelial cells (RPE); assay: Apoptosis by Cell Death ELISA Plus Kit in primary RPE cells; format: cell-based
Method: (§1) RPE, ARPE-19, and MDCK-F1 cells are exposed to both PG (0, 10, 50 µg/ml) and A2E (0, 15 or 20 µM) for 4 hrs. […] RPE, ARPE-19, and MDCK-F1 cells are exposed to both PG (0, 10, 50 µg/ml) and iso-A2E (0, 15 or 20 µM) under the influence of light for 4 hrs. Then they are washed 3 times with PBS and the apoptosis is determined by Cell Death ELISA Plus Kit (Roche, Mannheim, Germany)
(§2) As an example, the apoptotic effect of A2E on porcine primary retinal pigment epithelial cells (RPE), and the cell lines ARPE-19 and MDCK-F1 cells is analyzed. • Example 1 describes the apoptotic effect of A2E on RPE, ARPE-19, and MDCK-F1 cells. The cells are exposed to 0, 15 and 30 µM of A2E for 2, 4, 6 and 22 hrs. […] Then they are washed 3 times with PBS and the apoptosis is determined by Cell Death ELISA Plus Kit (Roche, Mannheim, Germany). • Example 3 describes the apoptotic effect of A2E on RPE, ARPE-19, and MDCK-F1 cells after application of iso-A2E and exposure in light (photo-isomerization). […] Then they are washed 3 times with PBS and the apoptosis is determined by Cell Death ELISA Plus Kit (Roche, Mannheim, Germany) (see figure 4).
(§3) RPE and ARPE-19 cells: Primary porcine retinal pigment epithelial cells were isolated as previously described. […] Detection of apoptosis: Apoptosis was detected by Cell Death ELISA Plus Kit (Roche, Mannheim, Germany). […]

ARPE-19 cells = assay: Apoptosis by Cell Death ELISA Plus Kit in ARPE-19 cells; format: cell-based, human
Method: as §1, §2, §3

MDCK-F1 cells = assay: Apoptosis by Cell Death ELISA Plus Kit in MDCK-F1 cells; format: cell-based, canine
Method: as §1, §2, §3

[2] = PG (0, 10, 50 µg/ml) together with A2E (0, 15 or 20 µM) for 4 hrs, Figure 3
[3] = PG (0, 10, 50 µg/ml) together with iso-A2E (0, 15 or 20 µM) under the influence of light for 4 hrs, Figure 4

L-A-Phosphatidyl-DL-Glycerol sodium [PG]
protective effect: protective effect regarding the apoptotic effect of A2E [1, 2] | protective effect regarding the apoptotic effect of photo-isomerization of iso-A2E [1, 3] | protective effect regarding the apoptotic effect of A2E (ARPE-19 cells; [2]) | protective effect regarding the apoptotic effect of photo-isomerization of iso-A2E (ARPE-19 cells; [3]) | protective effect regarding the apoptotic effect of A2E (MDCK-F1 cells; [2]) | protective effect regarding the apoptotic effect of photo-isomerization of iso-A2E (MDCK-F1 cells; [3])
